We go through one compound from patent publication US20190071416A1, “COMPOUNDS FOR TREATMENT OF CANCER AND EPIGENETICS” (Agency For Science, Technology and Research, priority 2015, published 2019).

Broadly, the IC50 is the concentration at which inhibition is half-maximal. As usually defined, the inhibition is the relative decrease from the control value, in per cent.

The target in one experiment is T1, SMYD3 (Homo sapiens, UniProt Q9H7B4).
T1 sequence (Q9H7B4 1-428): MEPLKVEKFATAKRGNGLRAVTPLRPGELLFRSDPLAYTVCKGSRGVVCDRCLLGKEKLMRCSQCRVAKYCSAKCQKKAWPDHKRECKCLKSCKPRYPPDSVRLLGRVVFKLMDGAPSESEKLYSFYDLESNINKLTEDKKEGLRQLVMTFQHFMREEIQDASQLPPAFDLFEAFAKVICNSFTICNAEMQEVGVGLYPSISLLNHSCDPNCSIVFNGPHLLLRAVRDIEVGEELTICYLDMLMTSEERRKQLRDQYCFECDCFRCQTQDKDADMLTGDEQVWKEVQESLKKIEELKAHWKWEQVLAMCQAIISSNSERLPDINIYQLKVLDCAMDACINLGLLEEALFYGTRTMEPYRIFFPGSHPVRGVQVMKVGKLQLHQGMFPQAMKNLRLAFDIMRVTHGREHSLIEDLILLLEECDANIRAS
As to the kind of experiment: SMYD3 biochemical assay (MTase-Glo, MAP3K2 peptide substrate). A digest of the protocol: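 Methylation of MAP3K2 peptide (10 µM final) with SAM (1.0 µM final) by SMYD3, 30 min at room temperature. SAH formed was enzymatically converted to ATP and detected as luminescence with MTase-Glo reagents; IC50 by non-linear regression.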

In the next experiment the test system is Hep G2 cells. In words: Soft agar colony formation assay. Format: cell-based, human. The protocol: Hep G2 cells were purchased from ATCC. Hep G2 cells were maintained in Eagle's Minimum Essential Medium (Sigma, Cat No: #M0643) supplemented with 10% Fetal Bovine Serum (Hyclone, Cat No: SV30087.03), 2 mM L-glutamine, 100 units/mL penicillin and 100 μg/mL streptomycin (Life Technologies, Cat No: 10378-016). The soft agar assays were performed in concordance to the ETC approved method report for soft agar assay (ETC document number: RD0019). Briefly, 600 μL of 0.6% agar was added to 24-well plate (Corning, Cat No: 3738) to form the base layer. This is followed by the addition of 500 μL of 0.36% agar middle layer (containing 10′000Hep G2 cells). Lastly, 500 μL of fresh growth medium (containing the corresponding serially diluted compound) was added above the middle layer. The plates were incubated at 37° C. with 5% carbon dioxide in a humidified incubator for 1 to 2 weeks. 70 μL of thiazolyl blue tetrazolium bromide (5 mg/mL, Sigma Cat No: M5655) was added to each well and the plates were incubated at 37° C. for 2 h. Colonies were counted with GelCount® instrument (Oxford Optronix). The colony counts were plotted against compound concentrations using the Graphpad Prism software. In addition, the software was used to perform non-linear curve fitting and the calculation of IC50.

SMILES strings stand for the structures. Like-named read-outs stand apart in the source and are kept apart here.

Consider `CCCOC(=O)N1CCN(C(=O)c2ccc3c(Cl)cc(-c4ccccc4)nc3c2)C[C@H]1C` [B019, Propyl (R)-4-(4-chloro-2-phenylquinoline-7-carbonyl)-2-methylpiperazine-1-carboxylate], for which the IC50 at SMYD3 (Table 1, MAP3K2 peptide as substrate, read-out: IC50) is 59.5 nM; at SMYD3 (Table 2, read-out: Biochemical assay IC50), 59.5 nM; at SMYD3 (Table 3, MTase assay, MAP3K2 peptide substrate, read-out: IC50), 60 nM; in the experiment with Hep G2 cells (Homo sapiens, HepG2, Hep G2, soft agar), 230 nM. Besides, the maximum inhibition with Hep G2 cells (Hep G2, soft agar) came to 97.2%. In the experiment on Hep G2 cells (Homo sapiens, HepG2, highest concentration tested (10 μM)), this compound gave an inhibition at 10 µM of roughly 100%.
